Test [1] relates to inducible IL-12 constructs (XON-61 or XON-62) in EGFRvIII-CAR-T cells. Put plainly: Veledimex ON-OFF cycling of IL-12 in EGFRvIII-CAR-T cells. It counts as cell-based. How it is done:
For each ON-OFF cycle, veledimex was first added (ON) at previously mentioned concentrations (typically between 20-100 nM) to cell cultures for 2-3 days. An aliquot of cells was harvested and analyzed for expression (ON) of various proteins by flow cytometry and/or ELISA at noted time points. Remaining cell culture was then washed and resuspended in complete medium without veledimex (OFF) and cultured for up to 5 days. Aliquots of cells were harvested and analyzed for expression (OFF) at times mentioned by flow cytometry and/or ELISA as noted above. Veledimex ON-OFF cycle(s) can be repeated again with remaining cell culture by repeating the process.
The effect of repeated treatments and withdrawals of veledimex to EGFRvIII-CAR-T cells harboring an inducible IL-12 gene was determined in vitro both in the presence and absence of antigen specific T cell activation by co-culture with AaPCs. In the first cycle (ON-OFF) of ligand treatment, CAR-T cells (10^6/ml) expanded ex vivo by four successive rounds of stimulation with EGFRvIII^+ AaPCs were treated with DMSO or veledimex and cultured in the presence or absence of AaPCs in media containing IL-21 and IL-2. After 48 hours post-treatment, cells were washed thoroughly to remove ligand and cultured in a new culture vessel in media containing IL-21 and IL-2 for 5 days. Culture supernatants harvested between 24-120 hours post-treatment were then analyzed for expression of IL-12 and IFNγ.
In the second cycle (ON-OFF) of ligand treatment, CAR-T cells from cultures treated with DMSO or veledimex in the presence of AaPCs in cycle 1 were collected at 5 days after withdrawal of veledimex (in cycle 1) and subjected to a second cycle of ligand treatment with DMSO or veledimex in the presence or absence of antigen specific T cell activation by co-culture with AaPCs. After 48 hours post-treatment, cells were washed thoroughly to remove ligand and cultured in a new culture vessel in media containing IL-21 plus IL-2 for 5 days. Culture supernatants harvested between 24-120 hours post-treatment were then analyzed for expression of IL-12 and IFNγ.

Test [2] deals with RTS:mbIL15 in CAR T cells. Description: Serine recombinase (SF370) integrated single vector CAR:HER1t+RTS:mbIL15, flow cytometry of mbIL15. It counts as cell-based. How it is done: Various DNA plasmids containing serine recombinase attachment sites and components of the gene switch system as depicted in FIG. 17 were transfected to peripheral blood mononuclear cells (PBMC) via nucleofection to redirect T cell specificity. Specifically, 3 single vectors were tested in the presence and absence of a serine recombinase, SF370:
(i) CAR:HER1t+constitutive mbIL15 (positive control)
(ii) CAR:HER1t+promoterless mbIL15 (negative control)
(iii) CAR:HER1t+RTS:mbIL15
The expression of the CAR and mbIL15 was evaluated weekly (at days 1, day 8, day 15 and day 22). Aliquots of cells were treated with either DMSO or veledimex 24-48 h prior to each flow to assess inducible mbIL15 expression. AaPC Clone 1 was added weekly at a 1:1 ratio with CAR+ cells.
For orientation: Flow cytometry measures light scatter and fluorescence of single cells or particles in a stream.

Here are results for 1 compound from US11692194B2, “Modulating expression of polypeptides via new gene switch expression systems” (Precigen, Inc., priority 2017, dated 2023).

Entries after “also recorded” stand apart in the source; their conditions may differ.

Regarding `CCC[C@@H](N(NC(=O)c1cccc(OC)c1CC)C(=O)c1cc(C)cc(C)c1)C(C)(C)C` [veledimex, N-[(1R)-1-(1,1-dimethylethyl)butyl]-N′-(2-ethyl-3-methoxybenzoyl)-3,5-dimethylbenzohydrazide], the “IL-12 induction in cycle 2 after veledimex versus DMSO in cycle 1” value in test [1] (48 h post-ligand treatment in cycle 2, with EGFRvIII^+ AaPCs) is on record as “increased IL-12 induction”. Further, in test [1] (cycle 1, culture supernatants at 48 h post-treatment), the “IL-12 expression relative to DMSO” value was “increase in IL-12 expression”. Moreover, in test [1] (cycle 1, presence vs absence of AaPCs), the “levels of IL-12 induction with versus without antigen-specific stimulation” value was “enhanced in the presence of AaPC-mediated antigen-specific stimulation; also recorded: significantly lower in the absence of antigen-specific stimulation”. For the same compound, in test [1] (prolonged culture, repeated addition and withdrawal), the “control of IL-12 expression over two cycles of ligand treatment” value is “can be turned ON and OFF repeatedly; also recorded: can regulate IL-12 expression”. Also, in test [1] (withdrawal at 48 h post-treatment, presence and absence of AaPCs), the “IL-12 expression after withdrawal of veledimex” value was “reduction of IL-12 expression; also recorded: gradually reduced back to the baseline levels; also recorded: went down to baseline levels”. In test [2] (day 22), the “mbIL15 expression after removal of veledimex” value is on record as “complete loss of mbIL15 expression”. For the same compound, the “mbIL-15 expression on veledimex treatment” value in test [2] (two weeks post-transfection, ~48 h treatment) is recorded as “induction of mbIL-15 expression”.
